{
  "source": "ChEMBL document CHEMBL4673243",
  "about": "“Discovery of 9-Cyclopropylethynyl-2-((S)-1-[1,4]dioxan-2-ylmethoxy)-6,7-dihydropyrimido[6,1-a]isoquinolin-4-one (GLPG1205), a Unique GPR84 Negative Allosteric Modulator Undergoing Evaluation in a Phase II Clinical Trial” (J Med Chem, 2020)",
  "key": {"Cytochrome P450 3A4 [1]": {"target": "T1, Cytochrome P450 3A4 (Homo sapiens, UniProt P08684)", "T1 sequence (P08684 whole entry)": "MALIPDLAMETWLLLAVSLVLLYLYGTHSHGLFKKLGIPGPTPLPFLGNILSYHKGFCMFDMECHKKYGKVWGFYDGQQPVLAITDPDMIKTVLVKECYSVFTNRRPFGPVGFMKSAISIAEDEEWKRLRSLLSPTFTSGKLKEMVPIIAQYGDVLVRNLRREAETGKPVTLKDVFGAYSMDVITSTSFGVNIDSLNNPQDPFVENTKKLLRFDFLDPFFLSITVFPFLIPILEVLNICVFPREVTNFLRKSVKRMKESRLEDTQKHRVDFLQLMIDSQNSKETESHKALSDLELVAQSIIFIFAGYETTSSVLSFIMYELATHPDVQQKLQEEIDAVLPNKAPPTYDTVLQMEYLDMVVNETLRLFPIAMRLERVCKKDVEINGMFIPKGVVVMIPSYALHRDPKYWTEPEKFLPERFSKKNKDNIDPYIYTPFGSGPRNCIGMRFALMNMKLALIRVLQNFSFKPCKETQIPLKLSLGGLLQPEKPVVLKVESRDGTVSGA", "assay": "Time-dependent inhibition of CYP3A4 in human liver microsomes using midazolam as substrate and in presence of co-factor by LC-MS/MS analysis"}, "Cytochrome P450 3A4 [2]": {"target": "T1, Cytochrome P450 3A4", "assay": "Inhibition of human CYP3A4 in human liver microsomes using testosterone as substrate and in presence of co-factor preincubated for 20 mins followed by substrate addition by LC-MS/MS analysis"}, "Cytochrome P450 3A4 [3]": {"target": "T1, Cytochrome P450 3A4", "assay": "Inhibition of CYP3A4 in human liver microsomes using midazolam as substrate and in presence of co-factor preincubated for 20 mins followed by substrate addition by LC-MS/MS analysis"}, "Cytochrome P450 2C19": {"target": "Cytochrome P450 2C19 (Homo sapiens, UniProt P33261)", "sequence (P33261 whole entry)": "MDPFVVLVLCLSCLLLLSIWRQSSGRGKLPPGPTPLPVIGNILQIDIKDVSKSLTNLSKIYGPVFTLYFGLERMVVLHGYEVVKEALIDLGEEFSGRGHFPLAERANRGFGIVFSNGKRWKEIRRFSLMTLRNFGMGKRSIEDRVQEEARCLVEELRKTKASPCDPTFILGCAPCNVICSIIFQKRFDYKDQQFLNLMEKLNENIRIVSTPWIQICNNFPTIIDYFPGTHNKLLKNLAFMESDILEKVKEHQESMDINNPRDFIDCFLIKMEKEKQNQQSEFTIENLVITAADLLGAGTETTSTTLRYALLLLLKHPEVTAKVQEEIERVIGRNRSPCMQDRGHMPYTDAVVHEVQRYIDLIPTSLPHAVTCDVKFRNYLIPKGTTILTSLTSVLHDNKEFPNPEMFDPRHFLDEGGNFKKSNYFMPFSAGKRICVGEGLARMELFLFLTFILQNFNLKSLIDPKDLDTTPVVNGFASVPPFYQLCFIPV", "assay": "Inhibition of CYP2C19 in human liver microsomes using probe substrate and in presence of co-factor preincubated for 20 mins followed by substrate addition by LC-MS/MS analysis"}, "[4]": {"assay": "Inhibition of embelin-induced migration of human neutrophils preincubated for 30 mins followed by embelin addition and measured after 1 hr by ATPlite luminescence assay", "details": "Neutrophil"}, "[5]": {"assay": "Thermodynamic solubility of compound at pH 3", "details": "buffer"}, "[6]": {"assay": "Plasma protein binding in human at 5 uM measured after 4 hrs by LC-MS/MS analysis"}, "Neutrophil": {"test_system": "Neutrophil", "assay": "Inhibition of dog neutrophil cell migration", "details": "Canis lupus familiaris"}, "[7]": {"assay": "Initial plasma concentration in CD1 mouse at 1 mg/kg, iv administered as single bolus dose using PEG-200/saline formulation measured after 24 hrs by LC-MS/MS analysis"}, "[8]": {"assay": "Clearance in Beagle dog at 0.5 mg/kg, iv administered as 10 mins infusion via catheter by LC-MS/MS analysis", "details": "in vivo"}, "[9]": {"assay": "Half-life in plasma of Balb/c mouse model of DSS-induced colitis at 3 mg/kg, po administered using PEG-200/water formulation starting from day 1 to 11 measured by LC-MS analysis"}, "in vivo [10]": {"assay": "in vivo", "details": "CD1, mouse, po, 5 mg/kg", "description": "Half-life in CD1 mouse at 5 mg/kg, po administered as single esophageal gavage dose post 12 hr fasting using PEG-200/water formulation measured after 24 hrs by LC-MS/MS analysis"}, "in vivo [11]": {"assay": "in vivo", "details": "male, Sprague-Dawley, rat, iv, 0.5 mg/kg"}, "in vivo [12]": {"assay": "in vivo", "details": "male, Sprague-Dawley, rat, po"}, "in vivo [13]": {"assay": "in vivo", "details": "male, Sprague-Dawley, rat, po", "remark": "listed apart in the source", "description": "Half-life in male Sprague-Dawley rat at 2.5 mg/kg, po administered as single gavage dose using PEG-200/water formulation measured after 24 hrs by LC-MS/MS analysis"}, "in vivo [14]": {"assay": "in vivo", "details": "Beagle, dog, iv, 0.5 mg/kg"}, "in vivo [15]": {"assay": "in vivo", "details": "Beagle, dog, po"}, "in vivo [16]": {"assay": "in vivo", "details": "Beagle, dog, po", "remark": "listed apart in the source", "description": "Half life in Beagle dog at 2.5 mg/kg, po administered as single dose via gavage by LC-MS/MS analysis"}, "in vivo [17]": {"assay": "in vivo", "details": "Balb/c, mouse, plasma, po, 3 mg/kg"}, "in vivo [18]": {"assay": "in vivo", "details": "Balb/c, mouse, plasma, po, 3 mg/kg", "remark": "listed apart in the source"}, "physchem [19]": {"assay": "physchem", "details": "aqueous solution with 2% DMSO, pH 7.4"}, "physchem [20]": {"assay": "physchem", "details": "aqueous solution with 2% DMSO, pH 3"}, "in vitro [21]": {"assay": "in vitro", "details": "human, liver microsomes"}, "in vitro [22]": {"assay": "in vitro", "details": "mouse, cryopreserved hepatocytes"}, "in vitro [23]": {"assay": "in vitro", "details": "mouse, cryopreserved hepatocytes", "remark": "listed apart in the source"}, "in vitro [24]": {"assay": "in vitro", "details": "dog, cryopreserved hepatocytes"}, "in vitro [25]": {"assay": "in vitro", "details": "rat, cryopreserved hepatocytes"}, "in vitro [26]": {"assay": "in vitro", "details": "dog, cryopreserved hepatocytes", "remark": "listed apart in the source"}},
  "data": [
    {"smiles": "O=c1nc(OC[C@@H]2COCCO2)cc2n1CCc1cc(C#CC3CC3)ccc1-2", "note": "[GLPG-1205]", "values": [
      {"measurement": "IC50", "setting": "Cytochrome P450 3A4 [1]", "result": "> 50", "unit": "µM"},
      {"measurement": "IC50", "setting": "Cytochrome P450 3A4 [2]", "result": "> 50", "unit": "µM"},
      {"measurement": "IC50", "setting": "Cytochrome P450 3A4 [3]", "result": "> 50", "unit": "µM"},
      {"measurement": "IC50", "setting": "Cytochrome P450 2C19", "result": "> 100", "unit": "µM"},
      {"measurement": "IC50", "setting": "[4]", "result": 0.011, "unit": "µM"},
      {"measurement": "solubility thermodynamic", "setting": "[5]", "result": 12.6, "unit": "µg/mL"},
      {"measurement": "fraction unbound at 4 h, 5 µM", "setting": "[6]", "result": 0.028},
      {"measurement": "IC50", "setting": "Neutrophil", "result": 0.075, "unit": "µM"},
      {"measurement": "C0 at 24 h", "setting": "[7]", "result": 1230, "unit": "ng/mL"},
      {"measurement": "clearance at […]", "setting": "[8]", "result": 20, "unit": "mL/min/kg"},
      {"measurement": "half-life", "setting": "[9]", "result": 2.9, "unit": "h"},
      {"measurement": "half-life at 24 h", "setting": "in vivo [10]", "result": 1.9, "unit": "h"},
      {"measurement": "AUC(0-t) at 24 h", "setting": "in vivo [11]", "result": 710, "unit": "ng·h/mL"},
      {"measurement": "Tmax at 24 h", "setting": "in vivo [12]", "result": 1.5, "unit": "h"},
      {"measurement": "half-life at 24 h", "setting": "in vivo [13]", "result": 1.3, "unit": "h"},
      {"measurement": "AUC(0-t) at […]", "setting": "in vivo [14]", "result": 410, "unit": "ng·h/mL"},
      {"measurement": "AUC(0-t) at 24 h", "setting": "in vivo [15]", "result": 2230, "unit": "ng·h/mL"},
      {"measurement": "half-life", "setting": "in vivo [16]", "result": 2, "unit": "h"},
      {"measurement": "Cmax", "setting": "in vivo [17]", "result": 1840, "unit": "ng/mL"},
      {"measurement": "Tmax", "setting": "in vivo [18]", "result": 1, "unit": "h"},
      {"measurement": "solubility", "setting": "physchem [19]", "result": 113, "unit": "µg/mL"},
      {"measurement": "solubility", "setting": "physchem [20]", "result": 113, "unit": "µg/mL"},
      {"measurement": "CLint scaled at 0.5 h, 1 µM", "setting": "in vitro [21]", "result": "< 19.3", "unit": "mL/min/kg"},
      {"measurement": "CLint scaled at 1 µM", "setting": "in vitro [22]", "result": "< 72.8", "unit": "mL/min/kg"},
      {"measurement": "half-life at 1 µM", "setting": "in vitro [23]", "result": "> 3.33", "unit": "h"},
      {"measurement": "half-life at 1 µM", "setting": "in vitro [24]", "result": "> 3.33", "unit": "h"},
      {"measurement": "CLint scaled at 1 µM", "setting": "in vitro [25]", "result": "< 33.3", "unit": "mL/min/kg"},
      {"measurement": "CLint scaled at 1 µM", "setting": "in vitro [26]", "result": "< 24.2", "unit": "mL/min/kg"}
    ]}
  ]
}
